Test results taken from patent publication US20250019370A1, “L-LYSINE SALT OF 4-CHLORO-5-[4-(2,6-DICHLOROPHENYL)SULFONYLPIPERAZIN-1-YL]-1-BENZOFURAN-2-CARBOXYLIC ACID AND VARIOUS FORMS THEREOF” (ENYO PHARMA, priority 2023, published 2025).

Experiments:
[1] = Dynamic Vapor Sorption (DVS) analysis (gas water sorption); format: physicochemical; details: for water uptake upon sorption (DVS): 25° C./95% RH; for hygroscopicity (DVS): hygroscopic above 2% mass gain at 25° C./60% RH
Description: The dynamic vapor sorption (DVS) analysis (gas water sorption) was performed on a DVS-Intrinsic incubator (SMS Ltd), equipped with DVS-Intrinsic Control Software 1.0. The sample, placed in an aluminium basket holder, was submitted to a full-cycle analysis (sorption followed by desorption cycle) under the following conditions:
The sample was first pre-dried under a stream of dry air until a stabilized sample mass was observed. Then, the relative humidity was increased by 5% increments. At each step, the sample mass was allowed to increase until equilibrium is reached (according to a given dm/dt target), and then a new relative humidity rise occurred. Relative humidity was ramped up to 95%. After equilibration at this point, desorption began in a similar stepwise manner, with sample mass decrease again allowed to stabilize after each incremental humidity decrease.
With both segments of the above-described method, the sample mass recording allowed describing of the whole vapor water sorption/desorption behaviour versus relative humidity.

[2] = Pharmacokinetic study Experiment #4, oral administration in rats; format: in vivo, rat; details: 10 mg EqEYP001/Kg
Description: In a fourth study (Experiment #4), EYP001, EYP001 L-lysine salt amorphous Form and EYP001 L-lysine salt Form VI in aqueous formulations (0.5% CMC, 0.25% Tween 80, water) were orally administrated at a dose of 10 mg EqEYP001/Kg in 8 male rats for each compound (4 rats on day 1 and 4 rats on day 2 for each compound). Blood samples were taken at 0.25 h, 0.5 h, 1 h, 2 h, 4 h, 6 h, 8 h, 12 h, and 24 h after oral administration.

[3] = Solubility kinetics in pH 4.5 acetate buffer; format: physicochemical; details: 37 ° C.
Description: The solubility kinetics of the salt forms as well as the native EYP001 free acid form were determined in FaSSIF and FeSSIF media, and in a pH 4.5 acetate buffer as detailed below:
The samples were prepared by adding an excess of each tested bulk (salt or native EYP001) to a given volume of test medium. The suspension was stirred by orbital stirring over 1 hour (in both pH 4.5 acetate buffer and FeSSIF medium) or 24 hours (inFaSSIF medium) at 37° C., protected from light.
In pH 4.5 acetate buffer, the soluble concentration was assessed after 0.5 hour and 1 hour of stirring.
At each time point, the “supernatant” was isolated and diluted in a solvent mixture allowing its injection into the chromatographic system. The concentration in solution in the test medium was determined by HPLC with external standardization.

[4] = Solubility kinetics in FeSSIF medium; format: physicochemical; details: for Soluble fraction: 37 ° C.
Description: The solubility kinetics of the salt forms as well as the native EYP001 free acid form were determined in FaSSIF and FeSSIF media, and in a pH 4.5 acetate buffer as detailed below: The samples were prepared by adding an excess of each tested bulk (salt or native EYP001) to a given volume of test medium. […] In FaSSIF medium, the soluble concentration was assessed after 24 hours of stirring. […] At each time point, the “supernatant” was isolated and diluted in a solvent mixture allowing its injection into the chromatographic system. The concentration in solution in the test medium was determined by HPLC with external standardization.

[5] = Thermogravimetric analysis (TGA), mass losses upon heating; format: physicochemical
Description: Thermogravimetric analysis was performed on a TA Instruments TGA Hi-Res 2950 apparatus equipped with an evolved gas analysis furnace. A sample was placed in an opened aluminium basket and analysed according to the following conditions: […]

[6] = Solubility kinetics in FaSSIF medium; format: physicochemical; details: after 24 h; for Soluble fraction: 37° C.; for pH: pH given with the soluble fraction
Description: The solubility kinetics of the salt forms as well as the native EYP001 free acid form were determined in FaSSIF and FeSSIF media, and in a pH 4.5 acetate buffer as detailed below: The samples were prepared by adding an excess of each tested bulk (salt or native EYP001) to a given volume of test medium. The suspension was stirred by orbital stirring over 1 hour (in both pH 4.5 acetate buffer and FeSSIF medium) or 24 hours ([…] medium) at 37° C., protected from light. In FaSSIF medium, the soluble concentration was assessed after 24 hours of stirring. […] At each time point, the “supernatant” was isolated and diluted in a solvent mixture allowing its injection into the chromatographic system. The concentration in solution in the test medium was determined by HPLC with external standardization.

[7] = Pharmacokinetic study Experiment #1, oral administration in rats; format: in vivo, rat; details: 50 mg EqEYP001/Kg, male rats, aqueous formulation
Description: In a first study (Experiment #1), EYP001, EYP001 Meglumine salt, and EYP001 L-lysine salt Form I in aqueous formulations (0.5% CMC, 0.25% Tween 80, water) were orally administrated at a dose of 50 mg EqEYP001/Kg in 3 male rats for each compound. Blood samples were taken at 0.25 h, 0.5 h, 1 h, 2 h, 4 h, 6 h, 8 h, 12 h, and 24 h after oral administration.

[8] = listed as EYP001 L-lysine salt (form VI)
[9] = male rats, aqueous formulation, listed as EYP001 L-lysine salt (Form VI)
[10] = male rats, versus EYP001 free acid, listed as EYP001 L-lysine salt (Form VI)
[11] = after 0.5 h, listed as EYP001 L-Lysine salt (Form VI)
[12] = after 1 h, listed as EYP001 L-Lysine salt (Form VI)

## NCCCC[C@H](N)C(=O)O.O=C(O)c1cc2c(Cl)c(N3CCN(S(=O)(=O)c4c(Cl)cccc4Cl)CC3)ccc2o1 [EYP001 L-lysine salt Form VI, L-lysine salt of 4-chloro-5-[4-(2,6-dichlorophenyl)sulfonylpiperazin-1-yl]-1-benzofuran-2-carboxylic acid]
[1]; 25° C./0% RH before sorption, listed as EYP001 L-lysine salt (Form VI)
  mass loss during preliminary drying phase: no significant mass loss
[1]; 25° C./60% RH, listed as EYP001 L-lysine salt form VI
  water uptake (DVS): 0.07%
[1]; listed as EYP001 L-lysine salt (Form VI)
  water uptake upon sorption (DVS): 0.4%
[1]; [8]
  water uptake upon sorption (DVS): 0.4%
  hygroscopicity (DVS): non-hygroscopic
[1]; 25° C., listed as EYP001 L-lysine salt (Form VI)
  maximum hysteresis sorption/desorption: 0.15%
[1]; listed as EYP001 L-lysine salt form VI
  hygroscopicity (DVS): non-hygroscopic
[2]; [9]
  Mean AUClast: 4612.3 ng·h/mL
  Mean Cmax: 2399.2 ng/mL
[2]; [10]
  % increase/EYP001 (AUClast): +36.6%
  % increase/EYP001 (Cmax): +66.1%
[2]; rat
  C max compared to EYP001 free acid: higher C max
  exposure (AUC0-24) compared to EYP001 free acid: superior exposure
  variability of the C max (CV %) compared to EYP001 free acid: strongly reduced
  variability of the exposure (CV %) compared to EYP001 free acid: strongly reduced
[3]; [11]
  Soluble fraction: 0.035 mg/mL of EYP001
[3]; [12]
  Soluble fraction: 0.033 mg/mL of EYP001
[4]; [11]
  Soluble fraction: 0.50 mg/mL of EYP001
[4]; [12]
  Soluble fraction: 0.75 mg/mL of EYP001
[4]; after 2 h, listed as EYP001 L-Lysine salt (Form VI)
  Soluble fraction: 0.90 mg/mL of EYP001
[4]; after 24 h, listed as EYP001 L-Lysine salt (Form VI)
  Soluble fraction: 1.18 mg/mL of EYP001
[4]; pH given with the soluble fraction, after 2 h
  pH: (pH = 4.9)
[4]; pH printed with the soluble fraction, after 0.5 h, listed as EYP001 L-Lysine salt (Form VI)
  pH: (pH = 5.0)
[4]; pH printed with the soluble fraction, after 1 h, listed as EYP001 L-Lysine salt (Form VI)
  pH: (pH = 4.9)
[4]; pH printed with the soluble fraction, after 24 h, listed as EYP001 L-Lysine salt (Form VI)
  pH: (pH = 4.9)
[5]; TGA step 1
  Start (° C.): 223 °C
  Stop (° C.): 275 °C
  TEndset (° C.): 262 °C
  TOnset (° C.): 251 °C
  Δm (%) mass loss upon heating: 11.2%
[5]; TGA step 2
  Start (° C.): 275 °C
  Stop (° C.): 480 °C
  TEndset (° C.): 344 °C
  TOnset (° C.): 313 °C
  Δm (%) mass loss upon heating: 58.4%
[5]; heater ramp 10 ° C./min, nitrogen, listed as EYP001 L-lysine salt (Form VI)
  onset temperature of thermal decomposition (TGA): 251 °C
[5]; upon heating, listed as EYP001 L-lysine salt (Form VI)
  mass loss before the beginning of thermal decomposition (TGA): no mass loss

## C1COCCN1.O=C(O)c1cc2c(Cl)c(N3CCN(S(=O)(=O)c4c(Cl)cccc4Cl)CC3)ccc2o1 [EYP001 Morpholine salt, reference compound]
[6]
  Soluble fraction: 0.22 mg/mL of EYP001
  pH: 6.5

## O=C(O)c1cc2c(Cl)c(N3CCN(S(=O)(=O)c4c(Cl)cccc4Cl)CC3)ccc2o1.c1ccc(CCNCc2ccccc2)cc1 [EYP001 Benethamine salt (polymorph II)]
[3]; after 0.5 h
  Soluble fraction: 0.0002 mg/mL of EYP001
[3]; after 1 h
  Soluble fraction: 0.0003 mg/mL of EYP001

## CNCC(O)C(O)C(O)C(O)CO.O=C(O)c1cc2c(Cl)c(N3CCN(S(=O)(=O)c4c(Cl)cccc4Cl)CC3)ccc2o1 [EYP001 Meglumine salt, reference compound]
[7]
  Mean AUC0-24: 33076 ng·h/mL
  Mean Cmax: 5372 ng/mL

## O=C([O-])c1cc2c(Cl)c(N3CCN(S(=O)(=O)c4c(Cl)cccc4Cl)CC3)ccc2o1.[K+] [EYP001 Potassium salt, reference compound]
[4]; after 0.5 h
  Soluble fraction: 0.35 mg/mL of EYP001
[4]; after 1 h
  Soluble fraction: 0.38 mg/mL of EYP001
[4]; pH given with the soluble fraction, after 0.5 h
  pH: (pH = 5.0)
[4]; pH given with the soluble fraction, after 1 h
  pH: (pH = 5.0)

## O=C(O)c1cc2c(Cl)c(N3CCN(S(=O)(=O)c4c(Cl)cccc4Cl)CC3)ccc2o1.c1ccc(CCNCc2ccccc2)cc1 [EYP001 Benethamine salt (Polymorph I)]
[6]
  Soluble fraction: 0.01 mg/mL of EYP001
  pH: 6.6

## O=C(O)c1cc2c(Cl)c(N3CCN(S(=O)(=O)c4c(Cl)cccc4Cl)CC3)ccc2o1.c1ccc(CCNCc2ccccc2)cc1 [EYP001 Benethamine salt (Polymorph II)]
[6]
  Soluble fraction: 0.01 mg/mL of EYP001
  pH: 6.5

## O=C(O)c1cc2c(Cl)c(N3CCN(S(=O)(=O)c4c(Cl)cccc4Cl)CC3)ccc2o1.c1ccc(CCNCc2ccccc2)cc1 [EYP001 Benethamine salt (polymorph I)]
[3]; after 0.5 h
  Soluble fraction: 0.001 mg/mL of EYP001
[3]; after 1 h
  Soluble fraction: 0.001 mg/mL of EYP001

## NC1CCCCC1.O=C(O)c1cc2c(Cl)c(N3CCN(S(=O)(=O)c4c(Cl)cccc4Cl)CC3)ccc2o1
[6]
  Soluble fraction: 0.19 mg/mL of EYP001
  pH: 6.5
